Measured values as given in US20250074943A1, “DLL3 BINDING PEPTIDES AND USES THEREOF” (AMGEN INC., priority 2021, published 2025).
Bridge positions count the residues as written; N and C are the ends. Peptide text beside a SMILES is read from it. * marks the point of attachment. X13 = NCCCOCCOCCOCCCNC(=O)CCC(=O)NCCCOCCOCCOCCCNC(=O)CCC(=O)NCCCC[C@H](NC(=O)CCC(=O)NCCCOCCOCCOCCCN*)C(N)=O; X11 = NCCCC[C@H](NC(=O)CCC(=O)NCCCOCCOCCOCCCN*)C(N)=O

What was measured:
[1] = target: T1, DLL3 (Homo sapiens, UniProt Q9NYJ7); experiment: Binding of peptides with linkers and/or fluorescent agent to DLL3 (BLI, SPR; Table 6)
T1 construct: The recombinant DLL3 ectodomain (rhDLL3-Fc) was biotinylated; Fc
T1 sequence (Q9NYJ7 27-492 limits assumed): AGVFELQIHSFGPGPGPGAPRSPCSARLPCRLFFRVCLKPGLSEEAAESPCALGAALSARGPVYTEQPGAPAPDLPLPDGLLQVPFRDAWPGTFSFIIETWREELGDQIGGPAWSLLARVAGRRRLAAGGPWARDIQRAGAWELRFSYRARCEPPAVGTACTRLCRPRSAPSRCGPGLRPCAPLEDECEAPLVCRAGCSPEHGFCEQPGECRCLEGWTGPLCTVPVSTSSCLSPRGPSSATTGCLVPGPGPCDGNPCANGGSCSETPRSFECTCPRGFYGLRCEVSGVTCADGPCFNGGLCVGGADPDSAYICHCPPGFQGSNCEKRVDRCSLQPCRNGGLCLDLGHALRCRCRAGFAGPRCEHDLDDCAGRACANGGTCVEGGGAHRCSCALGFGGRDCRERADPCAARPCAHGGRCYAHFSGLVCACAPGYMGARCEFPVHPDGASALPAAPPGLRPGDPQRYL
Protocol: (§1) Binding kinetic assays were performed using Bio-layer interferometry (BLI) technology. The recombinant DLL3 ectodomain (rhDLL3-Fc) was biotinylated using EZ-Link Sulfo-NHS-LC-LC-Biotin Kit according to the manufacturer's protocol (Pierce by Thermo Fisher Scientific). The recombinant protein was incubated with an excess of NHS-LC-LC Biotin ester, in a molar ratio of 1:3 (protein: biotin), at 25° C. for 90 min. The un-reacted biotin ester was removed by subsequent buffer exchange on 0.5 ml Zeba spin desalting columns 7K MWCO (Pierce by Thermo Fisher Scientific).
The off-rate screening of the peptides was done using a Biacore T200 instrument (Cytiva, Sweden). […] Peptides were diluted at 300 nM in PBS-P+1× buffer (Cytiva, Sweden) supplemented with 1% DMSO and 0.1% BSA, then injected over the ligand for five minutes at 30 μl/min, finally dissociation allowed for 1 h. Sensorgrams were analyzed by Biacore T200 Evaluation Software 3.0 (Cytiva, Sweden): specific binding was obtained by subtracting unspecific binding to naked biosensors and a zero analyte concentration made of binding assay buffer (double referencing). Kinetic parameters of koff were measured using a global fitting according to 1:1 Langmuir binding isotherm equation.

[2] = target: T2, cell-surface hDLL3 (CHO cells) (Homo sapiens, UniProt Q9NYJ7); experiment: Flow cytometry binding of fluorescence labelled peptides; type: cell-based; conditions: 100 nM AF647-labelled peptide; FIG. 1
T2 construct: expressed in transfected cells; host or cells: CHO (CHO-huDLL3)
T2 sequence (Q9NYJ7 27-618): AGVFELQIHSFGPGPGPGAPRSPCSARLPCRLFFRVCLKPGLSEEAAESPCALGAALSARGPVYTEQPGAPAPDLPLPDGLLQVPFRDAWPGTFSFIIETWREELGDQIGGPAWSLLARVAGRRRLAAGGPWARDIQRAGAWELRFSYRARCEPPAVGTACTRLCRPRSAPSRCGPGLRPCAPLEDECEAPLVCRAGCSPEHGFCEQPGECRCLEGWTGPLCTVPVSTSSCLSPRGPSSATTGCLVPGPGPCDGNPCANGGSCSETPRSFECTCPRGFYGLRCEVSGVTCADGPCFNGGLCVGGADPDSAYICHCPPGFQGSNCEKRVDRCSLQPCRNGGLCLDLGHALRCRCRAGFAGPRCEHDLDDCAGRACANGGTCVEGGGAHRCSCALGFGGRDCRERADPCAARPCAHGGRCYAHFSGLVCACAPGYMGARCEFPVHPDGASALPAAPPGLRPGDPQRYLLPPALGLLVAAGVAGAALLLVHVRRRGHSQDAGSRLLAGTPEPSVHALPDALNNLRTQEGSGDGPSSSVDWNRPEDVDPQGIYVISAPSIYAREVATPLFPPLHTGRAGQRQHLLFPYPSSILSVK
Protocol: HEK293-huDLL3, CHO-huDLL3 and the corresponding parental cell lines were detached with EDTA 2.5 mM and re-suspended at 1.8×10^6 cells/ml in FACS buffer (1×PBS, 2% FBS), distributed at 500 μl per testing tube and pelleted 5 min at 1300 rpm in a Heraeus Multifuge X3R centrifuge. […] After 1 hour incubation at room temperature, cells were washed once with FACS buffer, centrifuged and re-suspended in FACS buffer/1% formaldehyde. Samples were acquired on a FACS ARIA flow cytometer (Becton Dickinson) and data analysed by FACS Express software.

[3] = target: T3, rhDLL3-Fc (Homo sapiens, UniProt Q9NYJ7); experiment: SPR binding / off-rate screening (Biacore T200); conditions: Table 7, curve fitting of SPR sensorgrams
T3 construct: The recombinant DLL3 ectodomain (rhDLL3-Fc) was biotinylated; Fc
T3 sequence (Q9NYJ7 27-492 limits assumed): T1 sequence (Q9NYJ7 27-492 limits assumed)
Protocol: as §1, with “Binding kinetic assays were performed using Bio-layer interferometry (BLI) technology.” left out
The off-rate screening of the peptides was done using a Biacore T200 instrument (Cytiva, Sweden). […] Sensorgrams were analyzed by Biacore T200 Evaluation Software 3.0 (Cytiva, Sweden): specific binding was obtained by subtracting unspecific binding to naked biosensors and a zero analyte concentration made of binding assay buffer (double referencing). […]

[4] = target: T4, native huDLL3 on the surface of cells (CHO cells) (Homo sapiens, UniProt Q9NYJ7); experiment: Flow cytometry competition with AF647-labelled peptide; type: cell-based
T4 construct: expressed in transfected cells; host or cells: CHO (CHO-huDLL3)
T4 sequence (Q9NYJ7 27-618): T2 sequence (Q9NYJ7 27-618)
Protocol: HEK293-huDLL3, CHO-huDLL3 and the corresponding parental cell lines were detached with EDTA 2.5 mM and re-suspended at 1.8×10^6 cells/ml in FACS buffer (1×PBS, 2% FBS), distributed at 500 μl per testing tube and pelleted 5 min at 1300 rpm in a Heraeus Multifuge […] centrifuge.

SMILES | Kd [1] | RT [1] | also measured
CC(C)[C@H](NC(=O)[C@@H](NC(=O)[C@H](CCC(=O)O)NC(=O)[C@H](C)N)[C@@H](C)O)C(=O)N[C@@H](CCC(=O)O)C(=O)N[C@@H](Cc1ccccc1)C(=O)N[C@@H](Cc1c[nH]c2ccccc12)C(=O)NCC(=O)N[C@H]1CSSC[C@@H](C(=O)N[C@@H](Cc2c[nH]c3ccccc23)C(=O)N[C@@H](Cc2c[nH]c3ccccc23)C(=O)NCCCOCCOCCOCCCNC(=O)CCC(=O)N[C@@H](CCCCn2nnc3c2-c2ccccc2CN(C(=O)CCNC(=O)CCCCC[N+]2=C(/C=C/C=C/C=C4/N(CCCS(=O)(=O)O)c5ccc(S(=O)(=O)O)cc5C4(C)C)C(C)(CCCS(=O)(=O)O)c4cc(S(=O)(=O)[O-])ccc42)c2ccccc2-3)C(N)=O)NC(=O)[C@H]([C@@H](C)O)NC(=O)[C@H](CCC(=O)O)NC(=O)[C@H](CC(N)=O)NC(=O)CNC(=O)[C@H](Cc2c[nH]c3ccccc23)NC(=O)[C@H]([C@@H](C)O)NC(=O)CNC(=O)[C@H]([C@@H](C)O)NC1=O (stereo partly drawn) [PepSP1215] | 11.6 nM |  | binding to cells expressing hDLL3 [2]: binding
CC(C)[C@H](NC(=O)[C@@H](NC(=O)[C@H](CCC(=O)O)NC(=O)[C@H](C)N)[C@@H](C)O)C(=O)N[C@@H](CCC(=O)O)C(=O)N[C@@H](Cc1ccccc1)C(=O)N[C@@H](Cc1c[nH]c2ccccc12)C(=O)NCC(=O)N[C@H]1CSSC[C@@H](C(=O)N[C@@H](Cc2c[nH]c3ccccc23)C(=O)N[C@@H](Cc2c[nH]c3ccccc23)C(=O)NCCCOCCOCCOCCCNC(=O)CCC(=O)N[C@@H](CCCCn2cc(COCCOCCOCCOCCOCCOCc3cn(CCCC[C@H](NC(=O)CCC(=O)NCCCOCCOCCOCCCNC(=O)[C@H](Cc4c[nH]c5ccccc45)NC(=O)[C@H](Cc4c[nH]c5ccccc45)NC(=O)[C@@H]4CSSC[C@H](NC(=O)CNC(=O)[C@H](Cc5c[nH]c6ccccc56)NC(=O)[C@H](Cc5ccccc5)NC(=O)[C@H](CCC(=O)O)NC(=O)[C@@H](NC(=O)[C@@H](NC(=O)[C@H](CCC(=O)O)NC(=O)[C@H](C)N)[C@@H](C)O)C(C)C)C(=O)N[C@@H]([C@@H](C)O)C(=O)NCC(=O)N[C@@H]([C@@H](C)O)C(=O)N[C@@H](Cc5c[nH]c6ccccc56)C(=O)NCC(=O)N[C@@H](CC(N)=O)C(=O)N[C@@H](CCC(=O)O)C(=O)N[C@@H]([C@@H](C)O)C(=O)N4)C(N)=O)nn3)nn2)C(N)=O)NC(=O)[C@H]([C@@H](C)O)NC(=O)[C@H](CCC(=O)O)NC(=O)[C@H](CC(N)=O)NC(=O)CNC(=O)[C@H](Cc2c[nH]c3ccccc23)NC(=O)[C@H]([C@@H](C)O)NC(=O)CNC(=O)[C@H]([C@@H](C)O)NC1=O [PepSP1270] |  |  | Kd [3]: 3 nM; koff ([3]; read-out: koff): 0.00024 s⁻¹; kon ([3]; read-out: kon): 74300 M⁻¹ s⁻¹; IC50 [4]: 15.3 nM; efficiency in competing the binding of the AF647-labelled PepSP1146 ([4]; compared with monomer PepSP1146): higher efficiency

Continued, in another order:

Kd [1] | RT [1] | SMILES | also measured
42 ± 8 nM | 198.9 ± 41.1 | CC(=O)N[C@@H](C)C(=O)N[C@@H](CCC(=O)O)C(=O)N[C@H](C(=O)N[C@H](C(=O)N[C@@H](CCC(=O)O)C(=O)N[C@@H](Cc1ccccc1)C(=O)N[C@@H](Cc1c[nH]c2ccccc12)C(=O)N[C@@H](Cc1c[nH]c2ccccc12)C(=O)N[C@H]1CSSC[C@@H](C(=O)N[C@H](C(=O)N[C@@H](Cc2c[nH]c3ccccc23)C(=O)NCC(=O)NCC(=O)NCCCOCCOCCOCCCNC(=O)CCC(=O)N[C@@H](CCCCNC(=O)CCC(=O)NCCCOCCOCCOCCCNC(=O)CCC(=O)NCCCOCCOCCOCCCN)C(N)=O)[C@@H](C)O)NC(=O)[C@H]([C@@H](C)O)NC(=O)[C@H](Cc2c[nH]c3ccccc23)NC(=O)[C@H](CC(N)=O)NC(=O)[C@H](CCC(=O)O)NC(=O)[C@H](CO)NC(=O)[C@H](CC(N)=O)NC(=O)CNC(=O)[C@H](CC(N)=O)NC1=O)C(C)C)[C@@H](C)O [PepSP1342] (Ac-AETVEFWWCNGNSENWTCTWGG-X13; disulfide 9-18 (inferred)) | 
 | 369 | CC(=O)N[C@@H](C)C(=O)N[C@@H](CCC(=O)O)C(=O)N[C@H](C(=O)N[C@H](C(=O)N[C@@H](CCC(=O)O)C(=O)N[C@@H](Cc1ccccc1)C(=O)N[C@@H](Cc1c[nH]c2ccccc12)C(=O)NCC(=O)N[C@H]1CSSC[C@@H](C(=O)N[C@@H](Cc2c[nH]c3ccccc23)C(=O)N[C@@H](Cc2c[nH]c3ccccc23)C(=O)NCC(=O)NCC(=O)NCCCOCCOCCOCCCNC(=O)CCC(=O)N[C@@H](CCCCN)C(N)=O)NC(=O)[C@H]([C@@H](C)O)NC(=O)[C@H](CCC(=O)O)NC(=O)[C@H](CC(N)=O)NC(=O)CNC(=O)[C@H](Cc2c[nH]c3ccccc23)NC(=O)[C@H]([C@@H](C)O)NC(=O)CNC(=O)[C@H]([C@@H](C)O)NC1=O)C(C)C)[C@@H](C)O [PepSP1321] (Ac-AETVEFWGCTGTWGNETCWWGG-X11; disulfide 9-18) | 
29 ± 16 nM | 189.3 ± 73^ | CC(=O)N[C@@H](C)C(=O)N[C@@H](CCC(=O)O)C(=O)N[C@H](C(=O)N[C@H](C(=O)N[C@@H](CCC(=O)O)C(=O)N[C@@H](Cc1ccccc1)C(=O)N[C@@H](Cc1c[nH]c2ccccc12)C(=O)N[C@@H](Cc1c[nH]c2ccccc12)C(=O)N[C@H]1CSSC[C@@H](C(=O)N[C@H](C(=O)N[C@@H](Cc2c[nH]c3ccccc23)C(=O)NCC(=O)NCC(=O)NCCCOCCOCCOCCCNC(=O)CCC(=O)N[C@@H](CCCCN)C(N)=O)[C@@H](C)O)NC(=O)[C@H]([C@@H](C)O)NC(=O)[C@H](Cc2c[nH]c3ccccc23)NC(=O)[C@H](CC(N)=O)NC(=O)[C@H](CCC(=O)O)NC(=O)[C@H](CO)NC(=O)[C@H](CC(N)=O)NC(=O)CNC(=O)[C@H](CC(N)=O)NC1=O)C(C)C)[C@@H](C)O [PepSP1324] (Ac-AETVEFWWCNGNSENWTCTWGG-X11; disulfide 9-18 (inferred)) | 
